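Test compounds were applied to cells in 96-well plates for 48 hours at 5 doses. The concentration for 50% growth inhibition is given as GI50.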 Active and inactive are the calls of the source. Rule as the data show it: active = GI50 up to about 1.1 µM and inactive = higher.
Legend:
Assay in all cases: NCI tumour cell line growth inhibition, 48 h
SF-268 = test system: SF-268
NCI-H23 = test system: NCI-H23
CAKI-1 = test system: CAKI-1
SN12C = test system: SN12C
HOP-92 = test system: HOP-92
MDA-N = test system: MDA-N
M14 = test system: M14
SNB-19 = test system: SNB-19
Malme-3M = test system: Malme-3M
NCI-H460 = test system: NCI-H460
A549 = test system: A549
OVCAR-8 = test system: OVCAR-8
HT-29 = test system: HT-29
HCT-116 = test system: HCT-116
MCF7 = test system: MCF7
HCC 2998 = test system: HCC 2998
COLO 205 = test system: COLO 205
SNB-75 = test system: SNB-75
HOP-62 = test system: HOP-62
KM12 = test system: KM12

SMILES	GI50 (SF-268)	GI50 (NCI-H23)	GI50 (CAKI-1)	GI50 (SN12C)	GI50 (HOP-92)	GI50 (MDA-N)	GI50 (M14)	GI50 (SNB-19)	GI50 (Malme-3M)	GI50 (NCI-H460)	GI50 (A549)	GI50 (OVCAR-8)	GI50 (HT-29)	GI50 (HCT-116)	GI50 (MCF7)	GI50 (HCC 2998)	GI50 (COLO 205)	GI50 (SNB-75)	GI50 (HOP-62)	GI50 (KM12)
COc1cc(C(O)c2ccc3c(c2)OCO3)cc(OC)c1OC (stereo not given)	> 100 µM (inactive)	> 100 µM (inactive)	> 100 µM (inactive)	> 100 µM (inactive)	> 100 µM (inactive)	> 100 µM (inactive)	> 100 µM (inactive)	> 100 µM (inactive)	> 100 µM (inactive)	> 100 µM (inactive)	> 100 µM (inactive)	> 100 µM (inactive)	> 100 µM (inactive)	> 100 µM (inactive)	> 100 µM (inactive)	> 100 µM (inactive)	> 100 µM (inactive)	73.5 µM (inactive)	> 100 µM (inactive)	> 100 µM (inactive)
O=P(O)(O)CN1CCNCCN(CP(=O)(O)O)CCNCC1	> 100 µM (inactive)	10.1 µM (inactive)	> 47.8 µM (inactive)	> 100 µM (inactive)	3.78 µM (inactive)	13.5 µM (inactive)	26.1 µM (inactive)	> 100 µM (inactive)	20.9 µM (inactive)	3.24 µM (inactive)	8.22 µM (inactive)	6.68 µM (inactive)	3.95 µM (inactive)	4.39 µM (inactive)	6.97 µM (inactive)	7.64 µM (inactive)	5.13 µM (inactive)	> 51.6 µM (inactive)	> 100 µM (inactive)	6.84 µM (inactive)
CS(=O)(=O)OCCCCOS(C)(=O)=O [BUSULFAN]	179 µM (inactive)	230 µM (inactive)	161 µM (inactive)	233 µM (inactive)	198 µM (inactive)	209 µM (inactive)	236 µM (inactive)	222 µM (inactive)	242 µM (inactive)	95.9 µM (inactive)	208 µM (inactive)	237 µM (inactive)	247 µM (inactive)	238 µM (inactive)	213 µM (inactive)	183 µM (inactive)	222 µM (inactive)	144 µM (inactive)	187 µM (inactive)	> 250 µM (inactive)
C=CCOC(=O)N1c2ccc(O)cc2[C@@]23O[C@@]24[C@@H]1C#C/C=C\C#C[C@]3(O)C(=O)C[C@@H]4C	79.1 µM (inactive)	22.7 µM (inactive)	> 100 µM (inactive)	54.2 µM (inactive)	72.9 µM (inactive)	> 100 µM (inactive)	39.7 µM (inactive)	> 100 µM (inactive)	98.2 µM (inactive)	11.5 µM (inactive)	32 µM (inactive)	47.1 µM (inactive)	43.5 µM (inactive)	51.5 µM (inactive)	61.8 µM (inactive)	> 100 µM (inactive)	36.6 µM (inactive)	27.2 µM (inactive)	> 100 µM (inactive)	> 100 µM (inactive)
C/C1=C\CC[C@@]2(C)O[C@@H]2C[C@@H]2[C@H](C/C(C)=C/CC1)OC(=O)[C@]21CO1	> 100 µM (inactive)	> 100 µM (inactive)	> 100 µM (inactive)	74.5 µM (inactive)	> 100 µM (inactive)	61.1 µM (inactive)	> 100 µM (inactive)	> 100 µM (inactive)	> 100 µM (inactive)	20.7 µM (inactive)	65.2 µM (inactive)	> 100 µM (inactive)	69.3 µM (inactive)	41.5 µM (inactive)	41.5 µM (inactive)	78.9 µM (inactive)	> 100 µM (inactive)	> 100 µM (inactive)	> 100 µM (inactive)	28.8 µM (inactive)
COc1ccc2c(c1)[C@@H](NC(C)=O)CCc1cc(OC)c(OC)c(OC)c1-2	0.0154 µM (active)	0.0143 µM (active)	0.0206 µM (active)	0.02 µM (active)	0.0219 µM (active)	0.0128 µM (active)	0.0166 µM (active)	0.0222 µM (active)	0.0216 µM (active)	0.0168 µM (active)	0.0176 µM (active)	0.0157 µM (active)	0.0146 µM (active)	0.0148 µM (active)	0.0463 µM (active)	0.0174 µM (active)	0.0135 µM (active)	0.0258 µM (active)	0.0216 µM (active)	0.0131 µM (active)
O=C1Nc2ccccc2/C1=N/NC(=S)Nc1ccc([N+](=O)[O-])cc1	13 µM (inactive)	13.8 µM (inactive)	6.07 µM (inactive)	16.9 µM (inactive)	13.2 µM (inactive)	11.4 µM (inactive)	6.62 µM (inactive)	10.7 µM (inactive)	5.28 µM (inactive)	2.51 µM (inactive)	6.9 µM (inactive)	1.77 µM (inactive)	18.4 µM (inactive)	5.71 µM (inactive)	7.93 µM (inactive)	11.3 µM (inactive)	10.3 µM (inactive)	13.9 µM (inactive)	4.62 µM (inactive)	10.8 µM (inactive)
Cc1cc(O)c2c(=O)c3ccccc3[nH]c2c1	26.8 µM (inactive)	15 µM (inactive)	11.8 µM (inactive)	32.5 µM (inactive)	25.9 µM (inactive)	42.9 µM (inactive)	18.1 µM (inactive)	38.5 µM (inactive)	32.7 µM (inactive)	14.9 µM (inactive)	29.4 µM (inactive)	23 µM (inactive)	8.63 µM (inactive)	20.3 µM (inactive)	0.133 µM (active)	37.3 µM (inactive)	13.2 µM (inactive)	29.2 µM (inactive)	23.2 µM (inactive)	18.5 µM (inactive)

Source: ChEMBL document CHEMBL1201862, “PubChem BioAssay data set” (2004)
